Assay results from PubChem BioAssay (NCI).
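Results reflect a 48-hour exposure of cells in 96-well plates to compound at five concentrations. Definition used: TGI = concentration required for complete inhibition of growth.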

Legend:
Experiment in all cases: NCI-60 cell line screen, 48 h
[1] = system: CCRF-CEM leukemia
[2] = system: DU-145 prostate
[3] = system: HT29 colon
[4] = system: LOX IMVI melanoma
[5] = system: MOLT-4 leukemia
[6] = system: NCI-H23 lung
[7] = system: NCI/ADR-RES ovarian
[8] = system: OVCAR-8 ovarian
[9] = system: RPMI-8226 leukemia
[10] = system: RXF 393 renal
[11] = system: SF-539 CNS
[12] = system: SK-MEL-5 melanoma
[13] = system: SK-OV-3 ovarian
[14] = system: SNB-75 CNS
[15] = system: SR leukemia
[16] = system: T-47D breast
[17] = system: UACC-257 melanoma
[18] = system: HCC-2998 colon
[19] = system: M19-MEL melanoma
[20] = system: HS 578T breast

SMILES | TGI [1] [µM] | TGI [2] [µM] | TGI [3] [µM] | TGI [4] [µM] | TGI [5] [µM] | TGI [6] [µM] | TGI [7] [µM] | TGI [8] [µM] | TGI [9] [µM] | TGI [10] [µM] | TGI [11] [µM] | TGI [12] [µM] | TGI [13] [µM] | TGI [14] [µM] | TGI [15] [µM] | TGI [16] [µM] | TGI [17] [µM] | TGI [18] [µM] | TGI [19] [µM] | TGI [20] [µM]
CCOc1cc(NC(C)=O)ccc1C(=O)NN1C(=O)C(Oc2ccccc2)C1c1ccc(O)c(OC)c1 (configuration not stated) | 54.5 | > 100 | > 100 | > 100 | 32.3 | > 100 | > 100 | 96.8 | 51.6 | > 100 | > 100 | 49.5 | > 100 | > 100 | > 100 | 77.9 | > 100 | – | – | –
CC(C(=O)O)c1cnn(-c2ccccc2)c1-n1cccc1 (configuration not stated) | > 100 | – | > 100 | > 100 | > 100 | > 100 | > 100 | > 100 | > 100 | > 100 | > 100 | > 100 | > 100 | > 100 | – | – | > 100 | > 100 | > 100 | –
CN(C)CC(CN(C)C)c1ccccn1 | > 100 | – | > 100 | > 100 | > 100 | > 100 | > 100 | > 100 | > 100 | > 100 | > 100 | > 100 | > 100 | – | > 100 | – | > 100 | – | – | > 100
CC[C@]12C=CCN3CC[C@@]4(c5ccc(OC)cc5N(C)[C@H]4[C@@](O)(C(=O)OC)[C@@H]1OC(C)=O)[C@@H]32 | > 200 | – | > 200 | > 200 | > 176 | > 200 | > 200 | > 11.2 | > 200 | > 200 | > 200 | > 200 | > 200 | > 200 | – | – | > 200 | > 200 | > 63.2 | –
O=c1c2ccccc2nnn1-c1n[nH]c2ccccc12 | > 100 | > 100 | > 100 | – | – | > 100 | > 100 | – | > 100 | > 100 | > 100 | > 100 | – | > 100 | – | > 100 | > 100 | > 100 | – | > 100
Oc1ccc2ccccc2c1N=Nc1ccc(F)cc1 | > 100 | – | > 100 | > 100 | > 100 | > 100 | – | > 100 | > 100 | > 100 | > 100 | > 100 | > 100 | > 100 | > 100 | – | – | > 100 | > 100 | –
O=[N+]([O-])c1ccccc1N=Nc1c(O)sc2ccccc12 | > 100 | > 100 | > 100 | > 100 | > 100 | > 100 | – | > 100 | > 100 | – | > 100 | > 100 | > 100 | 79.5 | > 100 | > 100 | > 100 | > 100 | – | > 100
NCCc1nc(-c2nc(C(=O)O)cs2)cs1 | > 100 | > 100 | > 100 | > 100 | > 100 | > 100 | > 100 | > 100 | > 100 | > 100 | > 100 | > 100 | > 100 | > 100 | > 100 | > 100 | > 100 | – | – | > 100
O=C(Nc1ccc2nc(-c3ccccc3)cn2c1)Oc1ccccc1 | > 100 | > 100 | > 100 | > 100 | > 100 | > 100 | > 100 | > 100 | – | 7.31 | – | > 100 | > 100 | 13.1 | > 100 | 76.9 | > 100 | > 100 | – | > 100
CC[C@@H]1/C=C/C=C/C[C@H](C)[C@@H](O)[C@](C)(O)C(=O)[C@H](C)[C@@H](O)[C@H](C)C(=O)[C@H](C)[C@@H](O)[C@H](C)/C=C/C(=O)O[C@H]2[C@@H](C)[C@@H](CC1)O[C@]1(O[C@H](CC(C)O)[C@H](C)CC1=O)[C@@H]2C (some centres not stated) | > 16 | 8.78 | 8.78 | 9.2 | 11.3 | 12.4 | 14.8 | > 25 | > 13.9 | 7.37 | 8.75 | 3.53 | > 19.2 | > 25 | 12.8 | > 25 | 3.54 | 8 | – | > 18.5
CCOCNC(=O)N(COCC)COCC | > 100 | – | > 100 | > 100 | > 100 | – | – | > 100 | > 100 | – | > 100 | – | > 100 | > 100 | – | – | > 100 | > 100 | > 100 | –
CC(C)CCN=c1cc2n(-c3ccc(Cl)cc3)c3ccccc3nc-2cc1Nc1ccc(Cl)cc1 | > 91 | – | 19.8 | 8.03 | > 51.8 | 12.1 | 28.6 | 33.7 | 5.74 | 10.9 | 32.1 | 25.3 | 70.2 | > 91.4 | – | – | 19.7 | 18.1 | 20.2 | –
